Key:
Test in all cases: relative viability (nuclei count vs DMSO), 5 days (fraction); higher = more cells survive
Crenolanib + Lapatinib = compound: CC1(COc2ccc3c(c2)ncn3-c2ccc3cccc(N4CCC(N)CC4)c3n2)COC1 [Crenolanib] + CS(=O)(=O)CCNCc1ccc(-c2ccc3ncnc(Nc4ccc(OCc5cccc(F)c5)c(Cl)c4)c3c2)o1 [Lapatinib] (partner 2 µM)
Method in brief: (§1)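 Each reported value is a median over duplicate plates. It expresses relative viability: treated-well nuclei count divided by vehicle-well nuclei count. Lung cancer cell lines in 1536-well plates were dosed by pin tool a day after seeding, alone with one drug or with a fixed anchor-drug dose plus five library-drug doses (not always all listed) in √10 steps, and nuclei were counted after 5 days.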

Crenolanib + Navitoclax = compound: CC1(COc2ccc3c(c2)ncn3-c2ccc3cccc(N4CCC(N)CC4)c3n2)COC1 [Crenolanib] + CC1(C)CCC(c2ccc(Cl)cc2)=C(CN2CCN(c3ccc(C(=O)NS(=O)(=O)c4ccc(N[C@H](CCN5CCOCC5)CSc5ccccc5)c(S(=O)(=O)C(F)(F)F)c4)cc3)CC2)C1 [Navitoclax] (partner 0.5 µM)
Method in brief: as §1

Tivantinib + Luminespib = compound: O=C1NC(=O)[C@@H](c2cn3c4c(cccc24)CCC3)[C@@H]1c1c[nH]c2ccccc12 [Tivantinib] + CCNC(=O)c1noc(-c2cc(C(C)C)c(O)cc2O)c1-c1ccc(CN2CCOCC2)cc1 [Luminespib] (partner 0.01 µM)
Method in brief: as §1

Tivantinib + Dasatinib = compound: O=C1NC(=O)[C@@H](c2cn3c4c(cccc24)CCC3)[C@@H]1c1c[nH]c2ccccc12 [Tivantinib] + Cc1nc(Nc2ncc(C(=O)Nc3c(C)cccc3Cl)s2)cc(N2CCN(CCO)CC2)n1 [Dasatinib] (partner 0.075 µM)
Method in brief: as §1

Row | Cell Line | relative viability (Crenolanib + Lapatinib; first compound 0.01 µM) | relative viability (Crenolanib + Lapatinib; first compound 0.03162 µM) | relative viability (Crenolanib + Lapatinib; first compound 0.1 µM) | relative viability (Crenolanib + Lapatinib; first compound 0.3162 µM) | relative viability (Crenolanib + Lapatinib; first compound 1 µM) | relative viability (Crenolanib + Navitoclax; first compound 0.01 µM) | relative viability (Crenolanib + Navitoclax; first compound 0.03162 µM) | relative viability (Crenolanib + Navitoclax; first compound 0.1 µM) | relative viability (Crenolanib + Navitoclax; first compound 0.3162 µM) | relative viability (Crenolanib + Navitoclax; first compound 1 µM) | relative viability (Tivantinib + Luminespib; first compound 0.01 µM) | relative viability (Tivantinib + Luminespib; first compound 0.03162 µM) | relative viability (Tivantinib + Luminespib; first compound 0.1 µM) | relative viability (Tivantinib + Luminespib; first compound 0.3162 µM) | relative viability (Tivantinib + Dasatinib; first compound 0.01 µM) | relative viability (Tivantinib + Dasatinib; first compound 0.03162 µM) | relative viability (Tivantinib + Dasatinib; first compound 0.1 µM) | relative viability (Tivantinib + Dasatinib; first compound 0.3162 µM)
1 | NCI-H1993 | 0.805 | 0.759 | 0.856 | 0.787 | 0.784 | 0.994 | 0.92 | 0.825 | 0.897 | 0.884 | 1 | 0.822 | 0.421 | 0.56 | 0.649 | 0.7 | 1.35 | 0.583
2 | CAL-12T | 0.73 | 0.618 | 0.661 | 0.703 | 0.821 | 1.48 | 1.19 | 1.22 | 1.48 | 1.26 | 0.506 | 0.756 | 0.43 | 0.259 | 0.479 | 0.499 | 0.403 | 0.238
3 | NCI-H1623 |  |  |  |  |  |  |  |  |  |  | 0.504 | 0.553 | 0.545 |  | 0.464 | 0.424 | 0.494 | 
4 | HCC-78 | 0.138 | 0.637 | 0.705 | 0.71 | 0.467 | 0.754 | 0.8 | 0.726 | 0.727 | 0.764 |  |  |  |  | 0.416 | 0.376 | 0.378 | 0.377
5 | EKVX | 0.2 | 0.241 | 0.186 | 0.222 | 0.239 | 1.01 | 0.898 | 0.881 | 1.11 | 0.899 | 0.997 | 0.927 | 0.938 |  | 0.615 | 0.431 | 0.618 | 0.315
6 | Calu-6 | 0.996 | 1.02 | 1.05 | 1.27 | 1.06 | 1.02 | 0.781 | 0.826 | 0.941 | 0.838 |  |  |  |  |  |  |  | 
7 | EBC-1 | 0.212 | 0.213 | 0.22 | 0.202 | 0.215 | 0.504 | 0.395 | 0.467 | 0.566 | 0.571 |  |  |  |  |  |  |  | 
8 | NCI-H358 | 0.468 | 0.461 | 0.44 | 0.45 | 0.312 |  |  |  |  |  | 0.323 | 0.332 | 0.377 | 0.157 | 0.128 | 0.165 | 0.143 | 0.109
9 | IA-LM | 0.741 | 0.951 | 0.732 | 0.978 | 1.51 | 0.749 | 0.692 | 0.809 | 0.95 | 0.948 |  |  |  |  |  |  |  | 
10 | NCI-H441 |  |  |  |  |  | 0.487 |  | 0.815 | 0.639 | 0.683 | 0.343 | 0.359 | 0.27 | 0.337 | 0.801 | 0.555 | 0.356 | 0.433
11 | LCLC-103H |  |  |  |  |  |  |  |  |  |  | 1.02 | 0.938 | 0.976 | 0.856 | 0.424 | 0.428 | 0.429 | 0.436
12 | NCI-H1299 | 0.928 | 1.01 | 0.905 | 0.862 | 0.887 | 1.04 | 1.04 | 0.987 | 1.08 | 1.06 |  |  |  |  |  |  |  | 
13 | NCI-H661 | 0.493 | 0.547 | 0.47 | 0.451 | 0.468 |  |  |  |  |  | 0.936 | 0.93 | 0.954 | 0.799 | 0.884 | 0.869 | 0.736 | 0.4
14 | NCI-H1703 | 1.14 | 0.713 | 0.262 | 0.257 | 0.189 | 1 | 0.657 | 0.286 | 0.254 | 0.198 |  |  |  |  |  |  |  | 
15 | NCI-H650 | 0.83 | 1.15 | 0.884 | 0.841 | 0.655 |  |  |  |  |  | 0.895 | 0.798 | 0.739 | 0.432 | 0.504 | 0.359 | 0.461 | 0.527
16 | ChaGo-K-1 |  |  |  |  |  | 0.674 | 0.917 | 1 | 0.844 | 1 | 0.679 | 0.539 | 0.576 | 0.597 | 0.584 | 0.604 | 0.612 | 0.564
17 | NCI-H522 |  |  |  |  |  |  |  |  |  |  | 1.33 | 0.989 | 0.93 | 0.685 | 0.902 | 0.712 | 0.831 | 0.864
18 | NCI-H1563 | 0.818 | 0.97 | 0.937 | 0.998 | 0.849 |  |  |  |  |  | 0.52 | 0.517 | 0.478 | 0.534 | 0.453 | 0.443 | 0.514 | 0.399
19 | NCI-H2342 |  |  |  |  |  |  |  |  |  |  | 0.741 | 0.739 | 0.716 | 0.598 | 0.31 | 0.296 | 0.322 | 0.31
20 | SW 900 |  |  |  |  |  |  |  |  |  |  | 0.191 | 0.177 | 0.162 | 0.145 | 0.582 | 0.735 | 0.467 | 0.611
21 | HCC-44 | 1.02 | 0.997 | 0.901 | 0.999 | 0.905 | 0.951 | 0.998 | 0.961 | 0.987 | 0.94 | 1.13 | 1 | 0.954 | 0.634 |  |  |  | 
22 | A549 | 1.12 | 1.1 | 0.948 | 1.23 | 1.1 | 1.2 | 1.13 | 1.18 | 1.53 | 1.02 |  |  |  |  |  |  |  | 
23 | HCC-366 | 0.954 | 1.09 | 0.916 | 1.31 | 0.915 | 1.03 | 1.12 | 1.03 | 1.23 | 1.01 |  |  |  |  | 0.629 | 0.594 | 0.495 | 0.681
24 | ABC-1 | 1.23 | 1.02 | 1.28 | 1.1 | 1.23 |  |  |  |  |  | 0.43 | 0.944 | 0.339 | 0.675 | 0.629 | 0.742 | 0.566 | 0.516
